What was measured:
[1] = tested on: interferon (α); experiment: Cytokine induction in human cells: interferon (α) secreted by PBMCs (ELISA or bioassay); type: cell-based; settings: 18 to 24 hours
Experimental: (§1) An in vitro human blood cell system was used to assess cytokine induction by compounds of the invention.
(§2) Whole blood is collected by venipuncture into EDTA vacutainer tubes from healthy human donors. […] The PBMC suspension is added to 48 well flat bottom sterile tissue culture plates (Costar, Cambridge, Mass. or Becton Dickinson Labware, Lincoln Park, N.J.) containing an equal volume of RPMI complete media containing test compound.
(§3) The compounds are solubilized in dimethyl sulfoxide (DMSO). The DMSO concentration should not exceed a final concentration of 1% for addition to the culture wells.
(§4) The solution of test compound is added at 60 μM to the first well containing RPMI complete and serial 3 fold dilutions are made. The PBMC suspension is then added to the wells in an equal volume, bringing the test compound concentrations to the desired range (0.12 to 30 μM). The final concentration of PBMC suspension is 1.5–2×10^6 cells/mL. The plates are covered with sterile plastic lids, mixed gently and then incubated for 18 to 24 hours at 37° C. in a 5% carbon dioxide atmosphere.
(§5) Following incubation the plates are centrifuged for 5–10 minutes at 1000 rpm (˜200×g) at 4° C. The cell culture supernatant is removed with a sterile polypropylene pipet and transferred to sterile polypropylene tubes. Samples are maintained at −30 to −70° C. until analysis. The samples are analyzed for interferon (α) by either ELISA or bioassay and for tumor necrosis factor (α) by ELISA
Interferon is determined by bioassay using A549 human lung carcinoma cells challenged with encephalomyocarditis. […] Briefly stated the method is as follows: A549 cells are incubated with dilutions of samples or a standard interferon at 37° C. for 24 hours. The incubated cells are then infected with an inoculum of encephalomyocarditis virus. The infected cells are incubated for an additional 24 hours at 37° C. before evaluating for viral cytopathic effect. The viral cytopathic effect is quantified by staining with crystal violet followed by visual scoring of the plates. Results are expressed as alpha reference units/mL based on the value obtained for NIH Human Leukocyte IFN standard.
Interferon (α) concentration is determined by ELISA using a Human Multi-Species kit from PBL Biomedical Laboratories, New Brunswick, N.J. according to the manufacturer's instructions.

[2] = tested on: tumor necrosis factor (α); experiment: Cytokine induction in human cells: tumor necrosis factor (α) secreted by PBMCs (ELISA); type: cell-based; settings: 18 to 24 hours
Experimental: as §1, §2, §3, §4, §5
Tumor necrosis factor (α) (TNF) concentration is determined using ELISA kits available from Genzyme, Cambridge, Mass.; R&D Systems, Minneapolis, Minn.; or Pharmingen, San Diego, Calif. according to the manufacturer's instructions.

[3] = tested on: interferon (α); experiment: Interferon (α) induction in human cells (in vitro human blood cell system, interferon by bioassay); type: cell-based; settings: human PBM's, 48 hours

SMILES | Interferon (α) Induction ([1]; Dose Concentration 0.12 μM) | Interferon (α) Induction ([1]; Dose Concentration 0.37 μM) | Interferon (α) Induction ([1]; Dose Concentration 1.11 μM) | Interferon (α) Induction ([1]; Dose Concentration 3.33 μM) | Interferon (α) Induction ([1]; Dose Concentration 10 μM) | Interferon (α) Induction ([1]; Dose Concentration 30 μM) | Tumor Necrosis Factor Induction ([2]; Dose Concentration 0.12 μM) | Tumor Necrosis Factor Induction ([2]; Dose Concentration 0.37 μM) | Tumor Necrosis Factor Induction ([2]; Dose Concentration 1.11 μM) | Tumor Necrosis Factor Induction ([2]; Dose Concentration 3.33 μM) | Tumor Necrosis Factor Induction ([2]; Dose Concentration 10 μM) | Tumor Necrosis Factor Induction ([2]; Dose Concentration 30 μM) | melting point [°C] | Interferon (α) Induction in Human Cells ([3]; Dose Concentration 0.01 μg/mL) | Interferon (α) Induction in Human Cells ([3]; Dose Concentration 0.05 μg/mL) | Interferon (α) Induction in Human Cells ([3]; Dose Concentration 0.10 μg/mL) | Interferon (α) Induction in Human Cells ([3]; Dose Concentration 0.50 μg/mL) | Interferon (α) Induction in Human Cells ([3]; Dose Concentration 1.0 μg/mL) | Interferon (α) Induction in Human Cells ([3]; Dose Concentration 5.0 μg/mL) | Interferon (α) Induction in Human Cells ([3]; Dose Concentration 10.0 μg/mL) | further results
CCCc1nc2c(N)nc3cc(Cl)ccc3c2s1 [Example 63, 7-Chloro-2-propylthiazolo[4,5-c]quinolin-4-amine] | − | − | + | + | + | − | + | + | + | + | + | + | 159 to 160 |  |  |  |  |  |  |  | 
CCCCc1nc2c(N)nc3cccnc3c2s1 [Example 58, 2-Butylthiazolo[4,5-c][1,5]naphthyridin-4-amine] | − | − | − | − | ± | ± | − | + | + | + | + | + | 136 to 138 |  |  |  |  |  |  |  | 
CCCc1nc2c(N)nc3ccc(N)cc3c2s1 [Example 42, 2-Propylthiazolo[4,5-c]quinolin-4,8-diamine] | − | − | − | − | + | − | − | − | + | + | + | + | 190 to 192 | − | − | − | + | + | + |  | 
CC(C)c1nc2c(N)nc3ccccc3c2s1 [Example 20, 2-(1-Methyethyl)thiazolo[4,5-c]quinolin-4-amine] | − | − | + | − | − | − | − | − | − | + | + | + | 163 to 165 | − | − | − | − | − | + | + | Interferon (α) Induction in Human Cells ([3]; Dose Concentration 25.0 μg/mL): +; Interferon (α) Induction in Human Cells ([3]; Dose Concentration 50.0 μg/mL): +
CCCc1nc2c(N)nc3cccnc3c2s1 [Example 60, 2-Propylthiazolo[4,5-c][1,5]naphthyridin-4-amine] | − | − | − | − | − | − | − | ± | + | + | + | + | 135 to 136 |  |  |  |  |  |  |  | 
Nc1nc2ccccc2c2sc(N3CCOCC3)nc12 [Example 53, 2-(4-Morpholino)thiazolo[4,5-c]quinolin-4-amine] | − | − | − | − | − | − | − | − | − | − | − | − | 225 to 227 | − | − | − | − | − | − | − | Interferon (α) Induction in Human Cells ([3]; Dose Concentration 25.0 μg/mL): +; Interferon (α) Induction in Human Cells ([3]; Dose Concentration 50.0 μg/mL): +
Nc1nc2ccccc2c2sc(CCc3ccccc3)nc12 [Example 24, 2-(2-Phenyl-1-ethyl)thiazolo[4,5-c]quinolin-4-amine] | − | − | − | − | − | − | − | − | − | − | − | + | 158 to 159 | − | − | − | − | − | − | + | Interferon (α) Induction in Human Cells ([3]; Dose Concentration 25.0 μg/mL): +; Interferon (α) Induction in Human Cells ([3]; Dose Concentration 50.0 μg/mL): +

Reference: patent US7148232B2, “Oxazolo, thiazolo and selenazolo [4,5-c]-quinolin-4-amines and analogs thereof” (3M Innovative Properties Company, priority 1998, dated 2006)
